Measurements published in patent US10758549B2, “Compositions of obeticholic acid and methods of use” (Intercept Pharmaceuticals, Inc., priority 2015, dated 2020).

Assays:
[1] = Physiologic pharmacokinetic model of OCA (population PK fit and simulations); set-up: species or system human; conditions: normal hepatic function, model estimate
Description: Plasma levels of OCA and its conjugates were measured in healthy subjects and cirrhotic patients with varying degrees of hepatic impairment. A physiologic pharmacokinetic model for OCA was developed to quantitatively describe the absorption, distribution, metabolism, and excretion of OCA in patients with and without hepatic impairment. The model was based on a published multi-compartment PK model for CDCA, and consisted of systemic, hepatobiliary, and intestinal systems. The model was used to simulate the pathophysiological abnormalities caused by cirrhosis including decreased hepatic uptake, portal-systemic shunting, decreased liver volume, and differences in amino acid conjugation.
This examples describes development of a physiologic PK model to quantitatively describe the absorption, distribution, metabolism, and excretion of OCA. In addition, the model was used to define the effects of hepatic impairment to predict the systemic and liver exposure to OCA in subjects with various degrees of liver impairment relative to healthy subjects with normal liver function. The model was developed based on 3 studies in healthy volunteers and 2 studies in patients with varying degrees of hepatic impairment […].
Data from was used to develop the model in healthy subjects (n=160) and then adjust for hepatic impairment (n=32) using the data from the above Examples. After development, the model was validated with data sourced from healthy subjects and cirrhotic patients.
The data used in model development included subject identifiers, time of dosing and sample collection, plasma drug concentrations (OCA, glyco-OCA, and tauro-OCA), dose amount, disease status (e.g., Child-Pugh score), and meal consumption information. Study participants received standardized meals at specified times during inpatient observation. Gallbladder contraction was assumed to last 90 minutes after the start of a meal. Drug concentrations below the limit of quantification (BLQ) were imputed to half of the lower limit of quantification (LLOQ). Observed and BLQ concentrations of OCA, glyco-OCA, and tauro-OCA associated with samples drawn prior to the first dose were excluded from the analyses.
A number of structural modifications were made to the base CDCA model in order to adapt it for use with OCA. For simplification, a single space was used to represent the gut (small and large intestines). Since OCA is an exogenous molecule, it was assumed that there was no endogenous synthesis and an absorption compartment with a first-order transfer coefficient (Ka) was included to represent the administration and absorption kinetics of an oral OCA dose. Based on steric hindrance by the 6-ethyl group of OCA, no bacterial 7-alpha dehydroxylation biotransformation activity (i.e., CDCA to lithocholic acid) was included in the model. Compartment volumes in the model were fixed to physiological values from the base CDCA model. The OCA model used the physiological flow values for blood, bile and gastrointestinal transit from the original physiologic PK model for CDCA, with the exception of flows from bile duct to gallbladder and from bile duct to gut. The physiological values from the base model led to poor predictions and may not be applicable due to the simplification of the enteral system into a unified gut compartment. The biotransformation and transport rates in the model, being dependent on chemical entity structure, were estimated by fitting the model to the plasma concentration time profiles of OCA, glyco-OCA, and tauro-OCA.
The PK model was first developed using the OCA, glyco-OCA, and tauro-OCA plasma concentration time profiles from healthy volunteers with normal hepatic function. Model parameter estimates related to healthy physiology were then held constant while the PK model was further developed using OCA, glyco-OCA, and tauro-OCA plasma concentration time profiles from patients with hepatic impairment (Child-Pugh scores A, B, and C). […]

[2] = biological target: T1, farnesoid X receptor (FXR) (Homo sapiens, UniProt Q96RI1); conditions: in vitro / on FXR; cited from earlier work
T1 sequence (Q96RI1 1-486): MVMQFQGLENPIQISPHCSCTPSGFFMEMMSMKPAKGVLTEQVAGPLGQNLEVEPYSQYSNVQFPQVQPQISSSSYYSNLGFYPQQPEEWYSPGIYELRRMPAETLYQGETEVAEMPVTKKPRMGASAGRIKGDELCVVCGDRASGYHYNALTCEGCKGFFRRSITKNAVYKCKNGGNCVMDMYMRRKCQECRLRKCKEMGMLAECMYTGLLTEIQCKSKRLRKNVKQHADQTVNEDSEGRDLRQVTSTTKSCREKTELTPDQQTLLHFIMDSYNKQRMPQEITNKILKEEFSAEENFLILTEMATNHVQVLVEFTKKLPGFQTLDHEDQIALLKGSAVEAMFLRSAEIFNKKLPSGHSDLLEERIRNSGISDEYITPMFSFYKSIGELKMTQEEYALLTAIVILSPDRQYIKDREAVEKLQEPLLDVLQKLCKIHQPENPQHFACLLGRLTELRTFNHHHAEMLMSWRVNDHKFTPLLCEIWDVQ

[3] = normal hepatic function, Fixed; cited from earlier work
[4] = Example 10: clinical pharmacology / pharmacokinetics of OCA; assay type: in vivo, human; conditions: for systemic exposure versus dose: 5, 10, and 25 mg once daily for 14 days; for metabolite-to-parent ratio: after daily administration of obeticholic acid; for median time (Tmax) of peak plasma concentrations: glyco-OCA and tauro-OCA conjugates, multiple oral doses of OCA 10 mg once daily
Description: This example describes clinical pharmacology and dosing of obeticholic acid (OCA—including obeticholic acid compositions described herein). […] OCA can be supplied as an oral tablet containing obeticholic acid in a formulation as described herein.
Median Tmax for glyco-OCA and tauro-OCA is 10 hours.
Following an oral administration of 25 mg [^14C]-OCA, about 87% of the dose is excreted in feces through biliary secretion. Less than 3% of the dose is excreted in the urine with no detection of OCA.

b38: Glyco-OCA rate of deconjugation to OCA [1] [h⁻¹]	t9: Glyco-OCA transport rate from sinusoidal space to liver [1] [h⁻¹]	t19: Glyco-OCA transport rate from liver to bile duct [1] [h⁻¹]	t33: Glyco-OCA rate of absorption from gut to portal space [1] [h⁻¹]	metabolite-to-parent ratio [4]	median time (Tmax) of peak plasma concentrations [4] [h]	b37: Tauro-OCA rate of deconjugation to OCA [1] [h⁻¹]	t11: Tauro-OCA transport rate from sinusoidal space to liver [1] [h⁻¹]	t21: Tauro-OCA transport rate from liver to bile duct [1] [h⁻¹]	t35: Tauro-OCA rate of absorption from gut to portal space [1] [h⁻¹]	SMILES	pharmacological activity relative to OCA (parent drug) [2]	t12: Glyco-OCA and tauro-OCA transport rate from liver to sinusoidal space [3] [h⁻¹]	systemic exposure versus dose [4]
0.0431	1210	7.44	0.904	13.8	10					CC[C@H]1[C@@H](O)[C@@H]2[C@H](CC[C@]3(C)[C@@H]([C@H](C)CCC(=O)NCC(=O)O)CC[C@@H]23)[C@@]2(C)CC[C@@H](O)C[C@@H]12 [glyco-OCA]	nearly equipotent	1.62	increase more than proportionally with dose
				12.3	10	0.0200	1615	9.28	1.62	CC[C@H]1[C@@H](O)[C@@H]2[C@H](CC[C@]3(C)[C@@H]([C@H](C)CCC(=O)NCCS(=O)(=O)O)CC[C@@H]23)[C@@]2(C)CC[C@@H](O)C[C@@H]12 [tauro-OCA]	nearly equipotent	1.62	increase more than proportionally with dose
